# Measured values taken from patent US20180320177A1, “COMPOSITIONS AND METHODS FOR THE TREATMENT OF LIVER FIBROSIS” (UNIVERSITY OF CONNECTICUT, priority 2015, published 2018).
# Legend:
# Type in all cases: cell-based
# MMP and Rho signaling = test: Western blot of MMP and Rho signaling in TIC cells; conditions: TIC cells (FIG. 7E)
# Method: (§1) Western Blotting: Total protein lysates were prepared from livers and cells in lysis buffer containing 50 mM Tris, pH 8.0, 1% Nonidet™ P-40, 150 mM NaCl, 0.5% sodium deoxycholate, 0.1% SDS with protease inhibitors (Thermo Fisher Scientific) and subjected to immunoblotting. Nuclear and cytoplasmic subcellular fractions were prepared using NE-PER nuclear and cytoplasmic extraction reagents (Pierce) according to the manufacturer's instructions. The blot was incubated with a primary antibody, followed by a secondary antibody conjugated to horseradish peroxidase. ECL kit (Pierce) was used to detect the reactivity. The following antibodies were obtained from Cell Signaling Technology: HMGB2, HMGB1, AKT, p-AKT, mTOR, p-mTOR, ERK1/2, pERK1/2, Raptor, Rictor, p53, p21, p-Bad, Smad4, p-Smad2/3, Lamin A/C, a-SMA, MMP2, MMP9, TIMP1, RhoA, Rho-GTP, Cdc42, Rac1/2/3. Anti-HA antibody and anti-beta actin antibody were purchased from Sigma and Santa Cruz Biotechnology, respectively.
# (§2) Cell Lines The LX-2 human stellate cell line was maintained in Dulbecco's Modified Eagle's Medium (DMEM) supplemented with 2% fetal bovine serum (FBS), 100 IU/ml penicillin, and 100 μg/ml streptomycin. Human hepatocellular carcinoma (HCC) MHCC97H cells were maintained in DMEM supplemented with 10% FBS, 100 IU/ml penicillin, and 100 μg/ml streptomycin, 1 mM HEPES, 1 mM sodium pyruvate, 2 mM L-glutamine. Tumor-initiating (TIC) cells were obtained from Dr. Hidekazu Tsukamoto at University of Southern California and were maintained in 1:1 DMEM:F12 supplement with 100 U/ml penicillin and 100 μg/ml streptomycin, 2 mM glutamine, 20 ng/ml mouse EGF, 10 nM dexamethasone, 1× embryomax nucleotides. All the cells were maintained at 37° C. humidified atmosphere with 5% CO2. TIC cells were infected with Hmgb2 shRNA lentivirus for 48 hr, and treated with 500 ng/ml puromycin for 2 weeks. The stable cells were used for migration and invasion assay, as well as western blot.
# TIC cells = test: TIC cell migration and invasion assays; conditions: TIC cells (FIG. 7C, 7D)
# Method: as §2
# Cell Migration and Invasion: Cell migration and invasion assays were performed as described in the art. Briefly, control TIC cells or TIC cells with a stable knockdown of HMGB2 were infected with AAV8-Null or AAV-8-HMGB2 for 48 hr. The cells were then serum starved for 24 hr and 5×10^4 cells were seeded on transwell inserts with 8 μm pore size (Culterx® 96 well cell migration assay, cat# 3465-095-K). Cells were allowed to migrate for 16 hr. Non-migrating cells were removed from the insert with a cotton swab. The migrated cells were fixed for 10 min (3.7% v/v formaldehyde in PBS), and stained with 0.1% crystal violet for 15 min. Cells were washed with PBS and pictures were taken with Microfire/Qcam CCD Olympus 1×81 microscope. Cells stained with crystal violet were counted and then lysed with 1% SDS for 30 min and the absorbance was measured at 570 nm. Cell invasion assays were performed similarly to migration assays, except that the cells were seeded on pre-coated inserts with BME solution (Cultrex® 96 well BME cell invasion Assay, cat# 3455-096-K). Invaded cells were fixed, stained and the absorbance was measured as in the migration assay.
# HMGB2 = biological target: T1, HMGB2 (Homo sapiens, UniProt P26583); test: Western blot of HMGB2 protein in LX-2 and Huh7 cells treated with ICM; set-up: endogenous in cells; host or cells: LX-2, Huh7; conditions: for HMGB2 protein: fresh media every day for 3 days (FIG. 18 left)
# T1 sequence (P26583 1-209): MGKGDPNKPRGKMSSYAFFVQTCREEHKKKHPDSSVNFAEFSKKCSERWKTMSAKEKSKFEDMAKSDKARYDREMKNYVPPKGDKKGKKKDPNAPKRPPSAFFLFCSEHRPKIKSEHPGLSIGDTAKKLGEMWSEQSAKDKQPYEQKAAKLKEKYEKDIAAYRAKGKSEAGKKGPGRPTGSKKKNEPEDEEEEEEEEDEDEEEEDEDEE
# Method: as §1, §2
molecule,measurement,setting,value
"CC1(C)Oc2cc(O)ccc2C2C1=CCn1c(=O)n(-c3ccccc3)c(=O)n12 (centres unmarked) [ICM, inflachromene]",MMP signaling,MMP and Rho signaling,decreased
same,Rho signaling,MMP and Rho signaling,decreased
same,cell invasion,TIC cells,markedly blocks
same,cell migration,TIC cells,markedly blocks
same,HMGB2 protein,HMGB2; Huh7 cells,dose-dependently decreased
same,cytoplasm HMGB2 protein,HMGB2; LX2 cells (FIG. 5C),reduces cytoplasm HMGB2 protein
same,HMGB2 protein,HMGB2; LX-2 cells,dose-dependently decreased
"shHMGB2: small hairpin RNA against HMGB2 (SEQ ID NO: 8), delivered by AAV or lentivirus (CCGGGCTCAACATTAGCTTCAGTATCTCGAGATACTGAAGCTAATGTTGAGCTTTTTG)",MMP signaling,MMP and Rho signaling,decreased
same,Rho signaling,MMP and Rho signaling,decreased
same,cell invasion,TIC cells,decreased
same,cell migration,TIC cells,decreased
